102 compounds from ChEMBL document CHEMBL3507680, “University of Dundee, Gates Library screen for HepG2 cell viability” can be followed below.

The nature of this data set: Human HepG2 cell viability assay in 384 well format. In kind it is toxicity, cell-based. To be noted: HepG2 cells, read-out: Inhibition. On the set-up: dose 125 nL, time 70.5 hour; concentration not given beside the values.
Consider `CC1=N[C@@]2(CC[C@@H]3CN(C(=O)Nc4ccc(F)cc4)C[C@@H]32)C(=O)N1C`, for which the cytotoxicity at 70.5 h is -101%.

In the case of `CN1CCN(C(=O)c2cc(-c3cnc(N4CCCC4)nc3)cn2C)CC1`, the cytotoxicity at 70.5 h is -21.9%.

On to `Cn1cc(-c2cnc(N3CCOCC3)nc2)cc1C(=O)N1CCCC1`, for which the cytotoxicity at 70.5 h is -27.5%.

Turning to `c1cncc(CN2CCc3c(CNc4nccs4)n[nH]c3C2)c1`, the cytotoxicity at 70.5 h is -25%.

For the compound `C[C@@H]1C[C@@H]2CCN(C(=O)c3ccncn3)C[C@H]2O1`, the cytotoxicity at 70.5 h was -7.65%.

In the case of `COc1cc2cc(C(=O)NCCC(=O)O)n(C)c2c(OC)c1OC`, the cytotoxicity at 70.5 h is -4.76%.

Take `Cn1nc(C(=O)NCc2ccc(Cl)cc2)c2c1CCS(=O)(=O)C2`: the cytotoxicity at 70.5 h was found to be 2.61%.

With `COc1ccccc1C(=O)Nc1c(F)c(C(=O)NC2CCCC2)nn1C`, the cytotoxicity at 70.5 h was -7.93%.

For the compound `CC(C)NC(=O)c1nn(C)c(NC(=O)Cc2ccccc2)c1F`, the cytotoxicity at 70.5 h is -11.4%.

On to `COc1ccccc1C(=O)Nc1c(F)c(C(=O)NCCC(C)C)nn1C`, for which the cytotoxicity at 70.5 h came to 25.3%.

In the case of `Cc1nc(N2CCCC2)ncc1-c1cc(O)nc(N2CCN(C)CC2)n1`, the cytotoxicity at 70.5 h is -2.96%.

Take `CCC1=NC(SCC(=O)c2ccc(C)cc2)c2cc(CC)sc2N1` (configuration not stated): the cytotoxicity at 70.5 h is -15.9%.

On to `CCC1=NC(SCC(=O)c2ccc(Cl)cc2)c2cc(CC)sc2N1` (configuration not stated), for which the cytotoxicity at 70.5 h is -11%.

On to `O=S(=O)(Nc1ccc(Oc2ccc3c(c2)OCO3)cc1)N1CCCCC1`, for which the cytotoxicity at 70.5 h is 23%.

Regarding `Cn1ccnc1SCC(=O)NCc1ccc2c(c1)CCC(=O)N2`, the cytotoxicity at 70.5 h came to 2.79%.

As for `COc1ccc(C2=Nn3c(CCN)nnc3-c3ccccc3C2)cc1`, the cytotoxicity at 70.5 h is 8.3%.

Take `COc1ccc(C2=Nn3c(CCCN)nnc3-c3ccccc3C2)cc1`: the cytotoxicity at 70.5 h was 4.99%.

In the case of `O=C(NCc1ccco1)c1[nH]nc2c1CS(=O)(=O)CC2`, the cytotoxicity at 70.5 h stood at 22.5%.

Take `CCn1ncc(CNc2[nH]cnc3nncc2-3)c1C`: the cytotoxicity at 70.5 h is -13.8%.

For `Cc1nc2[nH]cnc(Nc3cnn(C)c3)c-2n1`, the cytotoxicity at 70.5 h is 0.28%.

On to `Cc1nc2[nH]cnc(NCCCN3CCOCC3)c-2n1`, for which the cytotoxicity at 70.5 h is -6.34%.

`CC(Nc1ncnc2c1NC(=O)CN2)c1ccccn1` (configuration not stated): the cytotoxicity at 70.5 h was -13.6%.

On to `O=C1CNc2ncnc(Nc3cnn(Cc4ccccc4)c3)c2N1`, for which the cytotoxicity at 70.5 h amounted to 27%.

As to `O=C1CNc2ncnc(Nc3cnn(Cc4ccc(F)cc4)c3)c2N1`, the cytotoxicity at 70.5 h is -12.2%.

Take `CC(Nc1ncnc2c1NC(=O)CN2)c1ccc2c(c1)OCO2` (configuration not stated): the cytotoxicity at 70.5 h is -18.5%.

For the compound `O=C1CNc2ncnc(Nc3cccc(Cn4cccn4)c3)c2N1`, the cytotoxicity at 70.5 h is -6.61%.

For `COc1ccccc1CNc1ncnc2c1NC(=O)CN2`, the cytotoxicity at 70.5 h is -6.12%.

For the compound `CC(C)c1noc(C2CCN(C(=O)C3CCCO3)CC2)n1` (configuration not stated), the cytotoxicity at 70.5 h was -11.9%.

In the case of `O=C1c2cnc(N3CCOCC3)nc2CN1Cc1cccc(F)c1`, the cytotoxicity at 70.5 h was -6.18%.

For `CNc1ncc2c(n1)CN(C1CCCC1)C2=O`, the cytotoxicity at 70.5 h was -9.4%.

Turning to `CN(C)c1ncc2c(n1)CN(C1CCSCC1)C2=O`, the cytotoxicity at 70.5 h is 22.1%.

Regarding `O=C1c2cnc(N3CCCCC3)nc2CN1c1ccc2c(c1)OCO2`, the cytotoxicity at 70.5 h was 16.4%.

As for `CCCc1noc(C2CCCCN2C(=O)CCc2cnn(C)c2)n1` (configuration not stated), the cytotoxicity at 70.5 h is -0.695%.

Consider `c1ccc2c(N3CCCCC3)cnnc2c1`, for which the cytotoxicity at 70.5 h was -6.45%.

For `c1ccc2c(N3CCOCC3)cnnc2c1`, the cytotoxicity at 70.5 h was -8.59%.

Consider `CNc1ncc2c(n1)CN(CCc1ccc(C)cc1)C2=O`, for which the cytotoxicity at 70.5 h was -3.63%.

In the case of `COc1ccc(N2Cc3nc(N)ncc3C2=O)cc1Cl`, the cytotoxicity at 70.5 h is -3.37%.

Take `COc1ccc(CCNC(=O)Cn2ncc3c2c(C)nn3C)cc1`: the cytotoxicity at 70.5 h is -12.7%.

Regarding `CCc1noc(C2CCCCN2C(=O)c2cc(C)on2)n1` (configuration not stated), the cytotoxicity at 70.5 h is -6.42%.

In the case of `CCn1nc(C)c2c1cnn2CC(=O)Nc1ccc(OC)cc1C`, the cytotoxicity at 70.5 h was -1.46%.

`CCC(C)NC(=O)Cn1ncc2c1c(C)nn2CC` (configuration not stated): the cytotoxicity at 70.5 h is 22.8%.

Consider `Cc1nn(C)c2cn(CC(=O)N3CCN(c4ccccn4)CC3)nc12`, for which the cytotoxicity at 70.5 h was found to be 5.73%.

`COc1ccccc1CNC(=O)C(C)n1cc2c(n1)c(C)nn2C` (configuration not stated): the cytotoxicity at 70.5 h is -6.09%.

Turning to `CCN(CC)c1nc(Nc2cccc(C(=O)O)c2)nc2ccccc12`, the cytotoxicity at 70.5 h is -11.2%.

With `COc1ccc(CNc2cc3[nH]c(O)nc3cc2C)cc1`, the cytotoxicity at 70.5 h was -5.05%.

For `Cc1nc(N2CCC(C)CC2)ncc1-c1cc(O)nc(N2CCCC2)n1`, the cytotoxicity at 70.5 h was 1.46%.

Turning to `CC(C)CN1Cc2nc(N)ncc2C1=O`, the cytotoxicity at 70.5 h is -10.7%.

As for `COc1ccc(N2Cc3nc(N4CCCC4)ncc3C2=O)cc1Cl`, the cytotoxicity at 70.5 h was determined as 1.18%.

Take `Cc1ccccc1CNC(=O)Cn1ncc2c1c(C)nn2C`: the cytotoxicity at 70.5 h was -9.91%.

For the compound `Clc1ccc2nncc(N3CCCCC3)c2c1`, the cytotoxicity at 70.5 h was -10.7%.

With `CCN1CCCC(O)(CNCc2ccc3c(c2)OCO3)C1` (configuration not stated), the cytotoxicity at 70.5 h was -10.3%.

Turning to `CCN1CCN(C(=O)Cn2ncc3c2c(C)nn3C(C)C)CC1`, the cytotoxicity at 70.5 h is -4.28%.

On to `Cc1nn(C)c2cn(CC(=O)N3CCc4ccccc4C3)nc12`, for which the cytotoxicity at 70.5 h turned out to be 1.13%.

For the compound `COCCNC(=O)Cn1cc2c(n1)c(C)nn2C(C)C`, the cytotoxicity at 70.5 h is -5.84%.

As for `CCN1CCCC(O)(CN(C)Cc2c(C)nn(C)c2C)C1` (configuration not stated), the cytotoxicity at 70.5 h was 2.33%.

In the case of `N#Cc1c(N2CCOCC2)nsc1-c1cccnc1`, the cytotoxicity at 70.5 h was -4.2%.

As to `CCn1cc(N2Cc3nc(N4CCC(C)CC4)ncc3C2=O)cn1`, the cytotoxicity at 70.5 h was -8.76%.

On to `CCN1CCN(c2nsc(-c3cccnc3)c2C#N)CC1`, for which the cytotoxicity at 70.5 h is -5.08%.

In the case of `COc1ccc2nnc(C(=O)NC3CCCC3)nc2c1`, the cytotoxicity at 70.5 h was -4.15%.

Take `COC(=O)C1CCN(C(=O)c2nnc3ccc(Cl)cc3n2)CC1`: the cytotoxicity at 70.5 h was -7.04%.

As to `CC1CCN(c2ncc3c(n2)CN(C2CCS(=O)(=O)C2)C3=O)CC1` (configuration not stated), the cytotoxicity at 70.5 h was found to be 29%.

For `Cc1cccc(N2Cc3nc(N4CCC(C)CC4)ncc3C2=O)c1`, the cytotoxicity at 70.5 h was -5.12%.

Consider `CCN1CCN(C(=O)c2cc(NC(=O)c3ccccc3)n(C)n2)CC1`, for which the cytotoxicity at 70.5 h was -3.8%.

As for `Cc1nn(C)c(C)c1CNC(=O)c1cc(NC(=O)C2CC2)n(C)n1`, the cytotoxicity at 70.5 h is -7.51%.

Turning to `Cn1nc(C(=O)NC2CCCCC2)cc1NC(=O)C1CC1`, the cytotoxicity at 70.5 h is -5.38%.

`Cn1nc(C(=O)NC2CCCC2)cc1NC(=O)C1CC1`: the cytotoxicity at 70.5 h is -8.78%.

For the compound `Cn1nc(C(=O)NC2CC2)cc1NC(=O)C1CC1`, the cytotoxicity at 70.5 h was -7.34%.

For `CCCN1CCN(c2nc(N)nc3c2nc(C)n3C)CC1`, the cytotoxicity at 70.5 h was 20.9%.

On to `CC(=O)c1ccc(Nc2nc(N)nc3c2nc(C)n3C)cc1`, for which the cytotoxicity at 70.5 h amounted to 4.46%.

On to `Cc1nc2c(Nc3ccc(C#N)cc3)nc(N)nc2n1C`, for which the cytotoxicity at 70.5 h was -1.73%.

As for `O=C(CCn1ncc2c(Cl)cccc21)NCCCn1cccn1`, the cytotoxicity at 70.5 h is -5.51%.

Turning to `Cc1ccsc1CN(CCCO)Cc1nc2ccccc2[nH]1`, the cytotoxicity at 70.5 h was -1.23%.

For the compound `COCC(=O)N[C@@H]1CN(Cc2ccc3c(c2)OCCO3)C[C@H]1O`, the cytotoxicity at 70.5 h amounted to 9.74%.

Regarding `COCCNc1cccc(C2CCCN2)n1` (configuration not stated), the cytotoxicity at 70.5 h is -6.3%.

Turning to `O=C(CCN1CCc2ccccc21)N1C[C@@H](O)[C@H](N2CCOCC2)C1`, the cytotoxicity at 70.5 h was -3%.

In the case of `CC1(C2CCN(CCCC(=O)O)CC2)CN(Cc2ccccc2)C(=O)O1` (configuration not stated), the cytotoxicity at 70.5 h is 2.48%.

For the compound `CN(C)C(=O)CN1CCC2(CC1)C[C@@H](O)[C@H](c1ccccc1)NC2=O`, the cytotoxicity at 70.5 h was -8.01%.

For the compound `Cc1cccnc1CN1CC[C@@](C)(O)[C@H](Oc2ccccc2)C1`, the cytotoxicity at 70.5 h was -7.26%.

Take `O[C@H]1CN(Cc2cc3ccccc3o2)CC[C@@]12CCCO2`: the cytotoxicity at 70.5 h was -8.98%.

On to `CNc1cc(C2CN(CC(=O)N(C)C)CCO2)nc(C)n1` (configuration not stated), for which the cytotoxicity at 70.5 h was -5.66%.

`Cc1cnc(C2(C)CCN(Cc3cscn3)CC2)s1`: the cytotoxicity at 70.5 h was -6.19%.

For `CCS(=O)(=O)N1CCCC(c2ccnc(N(C)C)c2)C1` (configuration not stated), the cytotoxicity at 70.5 h was -6.79%.

For the compound `CN(C)c1nccc(C2CN(C(=O)CO)C2)n1`, the cytotoxicity at 70.5 h is -4.15%.

As for `CC(=O)N1CCc2nnc(C3CCCCN3CC3CCCCC3)n2CC1` (configuration not stated), the cytotoxicity at 70.5 h is 12.6%.

`O=C(O)c1cccc(CN2CCC(c3ccnc4ccnn34)CC2)c1`: the cytotoxicity at 70.5 h is -8.88%.

On to `Cc1cc(C2CCCCN2C(=O)c2ccsc2)nc2nccn12` (configuration not stated), for which the cytotoxicity at 70.5 h came out at 6.22%.

Consider `O=C(NC1CCCC1)c1ccc(C2CCCNC2)nc1` (configuration not stated), for which the cytotoxicity at 70.5 h was found to be 9.52%.

Turning to `O=C(NCCO)C1(Cc2ccccc2-c2cccnc2)CCOCC1`, the cytotoxicity at 70.5 h was -10.7%.

`Cc1noc(C)c1-c1nc(C2CCCNC2)ccc1CO` (configuration not stated): the cytotoxicity at 70.5 h is -5.83%.

As to `Cc1nc(CN2CCOCC3(CCN(c4ncccn4)CC3)C2)cs1`, the cytotoxicity at 70.5 h was -97.5%.

On to `c1cncc(N2CC[C@@H]3CN(CC4CC4)C[C@@H]3C2)c1`, for which the cytotoxicity at 70.5 h is -26.1%.

`O=C1COC2(CCN(Cc3ccoc3)CC2)CN1`: the cytotoxicity at 70.5 h was -30.5%.

`CCOCC1CN(Cc2ccoc2)Cc2nn(C)cc21` (configuration not stated): the cytotoxicity at 70.5 h is -4.9%.

`O=C(C1CCOCC1)N1CCO[C@H]2[C@H](OCc3ccncc3)CC[C@@H]21`: the cytotoxicity at 70.5 h was -9.92%.

With `CCN1CC[C@@]2(C(=O)Nc3ccccc3)CCN(S(C)(=O)=O)CC[C@@H]12`, the cytotoxicity at 70.5 h was -17.9%.

`COCC1c2c(cnn2C)CCN1Cc1ccco1` (configuration not stated): the cytotoxicity at 70.5 h is -0.607%.

As for `O=C1COC2(CCN(Cc3ccncc3)CC2)CN1`, the cytotoxicity at 70.5 h is -11.9%.

`OCCN1CCC2(CC1)CC(NCc1ccccn1)c1ccccc1O2` (configuration not stated): the cytotoxicity at 70.5 h is -0.919%.

In the case of `CC(C)N1CCC2(CC1)CC(NCc1ccccn1)c1ccccc1O2` (configuration not stated), the cytotoxicity at 70.5 h is -0.344%.

For `CCN1CCC2(CC1)CC(NCc1cccc(C)n1)c1ccccc1O2` (configuration not stated), the cytotoxicity at 70.5 h was -16.9%.

`CCN1CCC2(CC1)CC(NCc1ccncc1)c1ccccc1O2` (configuration not stated): the cytotoxicity at 70.5 h was -20.8%.

Take `COc1ncc(CN(CCCN2CCOCC2)Cc2ccc(C)o2)cn1`: the cytotoxicity at 70.5 h was -4.04%.
